From PubChem BioAssay (NCI)
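Results reflect a 48-hour exposure of cells in 96-well plates to compound at five concentrations. TGI: concentration producing complete growth inhibition.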

Legend:
Assay in all cases: inhibition of tumour cell growth, NCI panel, 48 h
[1] = system: A498 renal
[2] = system: BT-549 breast
[3] = system: CAKI-1 renal
[4] = system: CCRF-CEM leukemia
[5] = system: COLO 205 colon
[6] = system: EKVX NSCLC
[7] = system: KM12 colon
[8] = system: M14 melanoma
[9] = system: MDA-MB-231 breast
[10] = system: OVCAR-5 ovarian
[11] = system: OVCAR-8 ovarian
[12] = system: RXF 393 renal
[13] = system: SNB-75 CNS
[14] = system: SR leukemia

Structure (SMILES)	TGI [1]	TGI [2]	TGI [3]	TGI [4]	TGI [5]	TGI [6]	TGI [7]	TGI [8]	TGI [9]	TGI [10]	TGI [11]	TGI [12]	TGI [13]	TGI [14]
COc1cc(/C=C2\C(=O)N(c3ccc(NC(C)=O)cc3)C(c3ccccc3)S2(=O)=O)cc(OC)c1OC (centres undefined)	> 100 µM	> 100 µM	> 100 µM	> 100 µM	> 100 µM	> 100 µM	> 100 µM	> 100 µM	> 100 µM	> 100 µM	> 100 µM	> 100 µM	> 100 µM	> 100 µM
O=C(c1ccc(Cl)c(Cl)c1)N(C(=O)N1CCN(c2ccccc2)CC1)S(=O)(=O)c1ccccc1	> 100 µM	> 100 µM	> 100 µM	> 100 µM	> 100 µM	> 100 µM	> 100 µM	> 100 µM	> 100 µM	64.5 µM	83.5 µM	> 100 µM	> 100 µM	> 100 µM
N/N=C(/CC(O)(C(F)(F)F)C(F)(F)F)c1ccccc1	> 10 µM	> 10 µM	> 10 µM	> 10 µM	> 10 µM	> 10 µM	> 10 µM	> 10 µM	> 10 µM	> 10 µM	> 10 µM	> 10 µM	> 10 µM	> 10 µM
N#CCCN(CCCN(C(=O)Nc1ccc(NC(=O)N(CCCN(CCC#N)C(N)=O)c2ccccc2)cc1)c1ccccc1)C(N)=O	> 100 µM	> 100 µM	> 100 µM	> 100 µM	> 100 µM	> 100 µM	> 100 µM	> 100 µM	> 100 µM	> 100 µM	> 100 µM	> 100 µM	> 100 µM	> 100 µM
O=C1Nc2ccccc2/C1=N/N1C(=O)/C(=C/c2ccccc2S)N=C1c1ccccc1	> 100 µM	> 100 µM	> 100 µM	> 100 µM	> 100 µM	> 100 µM	> 100 µM	> 100 µM	> 100 µM	> 100 µM	> 100 µM	> 100 µM	> 100 µM	> 100 µM
Cc1c(-c2ccccc2)c(C#N)c2nnn(C)c(=O)n12	> 100 µM	> 100 µM	> 100 µM	> 100 µM	> 100 µM	> 100 µM	> 100 µM	> 100 µM	> 100 µM	> 100 µM	> 100 µM	> 100 µM	> 100 µM	> 100 µM
Cn1c(-c2cccs2)cc(-c2ccsc2)c1-c1cccs1	> 100 µM	> 100 µM	> 100 µM	> 100 µM	46.5 µM	> 100 µM	> 100 µM	> 100 µM	> 100 µM	> 100 µM	> 100 µM	> 100 µM	> 100 µM	> 100 µM
Oc1ccccc1-c1n[nH]c(-c2ccccc2O)n1	> 100 µM	> 100 µM	> 100 µM	> 100 µM	> 85.8 µM	> 34 µM	> 100 µM	> 100 µM	> 100 µM	> 100 µM	> 100 µM	> 100 µM	> 100 µM	> 100 µM
Nc1ncc(N)c(NCC2(CO)CC(CCc3ccccc3)C2)n1 (centres undefined)	27.4 µM	23.1 µM	21.8 µM	4.34 µM	16.8 µM	22.7 µM	23 µM	24 µM	14.8 µM	28.5 µM	23.7 µM	27.8 µM	29.4 µM	13.2 µM
COc1cc(OC)c2nc(C)c3c(c2c1)OCC3	> 100 µM	> 100 µM	72 µM	> 100 µM	> 100 µM	> 100 µM	> 100 µM	> 100 µM	52.9 µM	> 100 µM	> 100 µM	62.6 µM	> 100 µM	> 100 µM
CC(C)(C)Cc1cc(O)ccc1O	> 100 µM	> 100 µM	> 100 µM	93.9 µM	> 100 µM	> 100 µM	> 100 µM	> 100 µM	> 100 µM	> 100 µM	> 100 µM	> 100 µM	> 100 µM	> 100 µM
